Test results taken from patent US4432982A, “Polycyclic compounds substituted on the A-ring, pharmaceutical compositions containing them, and methods of treating psoriasis with them” (Richter Gedeon Vegyeszeti Gyar Rt., priority 1981, dated 1984).
Where a name gives a salt, the structure may show the parent alone.

Tested on: phosphodiesterase isolated from cattle heart
Experiment: Phosphodiesterase inhibition, radioisotope method with 3H-c-AMP, enzyme isolated from cattle heart
Assay type: biochemical
Settings: control without inhibitor = 100%, 20 minutes incubation
Experimental: The model experiments were performed by means of phosphodiesterase isolated from animal tissues (rat brain, cattle brain, cattle heart). The enzyme was isolated by the technique of J. Schroder and H. V. Richenberg [Biochem. Biophys. […] The measurement was first carried out without the inhibiting substance and then in the presence of one of the compounds of the general formula (I) as an inhibiting agent, after an incubation period of 20 minutes [N.S. Arch. […] A solution of papaverine used as reference material was added to the enzyme preparate in an analogous manner.
The activity of the solutions containing the compounds of formula (I) and papaverine was expressed in percents of the control (enzyme solution without any inhibitor substance, the activity thereof was taken 100%).

[1] = 1 × 10^-5 mole/lit. test compound, 10 µM
[2] = 5 × 10^-6 mole/lit. test compound, 5 µM
[3] = 5 × 10^-5 mole/lit. test compound, 50 µM

Row | SMILES | effect of the test compound on enzyme activity in % of the control [1] | effect of the test compound on enzyme activity in % of the control [2] | effect of the test compound on enzyme activity in % of the control [3]
1 | CC[C@@]12C=C(COC(=O)c3cc(OC)c(OC)c(OC)c3)n3c4c(c5cc(Br)ccc53)CCN(CCC1)[C@H]42 [10-Bromo-apovincaminol-3',4',5'-trimethoxy-benzoate] | 61.8% | 67.8% | 
2 | CC[C@@]12C=C(COC(=O)c3cc(OC)c(OC)c(OC)c3)n3c4c(c5cc(OC)ccc53)CCN(CCC1)[C@H]42 [10-Methoxy-apovincaminol-3',4',5'-trimethoxybenzoate] | 40.3% | 59.1% | 21.3%
3 | COc1ccc(Cc2nccc3cc(OC)c(OC)cc23)cc1OC [Papaverine HCl, reference compound] | 82.7% | 91.3% | 43.7%
4 | CC[C@@]12C=C(COC(=O)c3cc(OC)c(OC)c(OC)c3)n3c4c(c5ccc(Br)cc53)CCN(CCC1)[C@H]42 [(-)-11-Bromo-apovincaminol-3',4',5'-trimethoxy-benzoate hydrochloride] | 21.8% | 31.9% | 21.8%
